Experimental data published in patent US9302999B2, “Substituted triazoles as herbicides” (E. I. DU PONT DE NEMOURS AND COMPANY, priority 2012, dated 2016).

What was measured:
Assay type in all cases: in vivo
soybean (Glycine max) = assay: Test C pre-/postemergence: soybean; details: Preemergence
Outline: (§1)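 Preemergence on seeds in loam/sand, postemergence on 2–18 cm (1–4-leaf) plants in peat-based medium; compounds in non-phytotoxic solvent with surfactant. After 13–15 days in greenhouse, visual rating versus controls, 0 (no effect) to 100 (complete control).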

[1] = system: velvetleaf (Abutilon theophrasti); assay: Test C pre-/postemergence: velvetleaf; details: Preemergence
Outline: as §1

[2] = system: winter wheat (Triticum aestivum); assay: Test C pre-/postemergence: winter wheat; details: Preemergence
Outline: as §1

[3] = system: foxtail, giant (giant foxtail, Setaria faberii); assay: Test C pre-/postemergence: foxtail, giant; details: Preemergence
Outline: as §1

[4] = system: barnyardgrass (Echinochloa crus-galli); assay: Test B flooded paddy: barnyardgrass; details: Flood; 250 g ai/ha; applied to paddy water at 2-leaf stage; visually evaluated after 13 to 15 days
Outline: (§2)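 Plants were grown to the 2-leaf stage and pots flooded to 3 cm above soil. Compounds were applied directly into the paddy water, with depth kept for the test. After 13–15 days in greenhouse, response was rated visually against controls on a 0 (no effect) to 100 (complete control) scale.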

rice (Oryza sativa) = assay: Test B flooded paddy: rice; details: Flood; 250 g ai/ha; applied to paddy water at 2-leaf stage; visually evaluated after 13 to 15 days
Outline: as §2

[5] = system: pigweed (Amaranthus retroflexus); assay: Test C pre-/postemergence: pigweed; details: Preemergence
Outline: as §1

[6] = system: johnsongrass (Sorghum halepense); assay: Test C pre-/postemergence: johnsongrass; details: Preemergence
Outline: as §1

[7] = system: blackgrass (Alopecurus myosuroides); assay: Test C pre-/postemergence: blackgrass; details: Preemergence
Outline: as §1

corn (Zea mays) = assay: Test C pre-/postemergence: corn; details: Preemergence
Outline: as §1

kochia (Kochia scoparia) = assay: Test C pre-/postemergence: kochia; details: Preemergence
Outline: as §1

[8] = 31 g ai/ha, scale of 0 to 100, 0 is no effect, 100 is complete control
[9] = 62 g ai/ha, scale of 0 to 100, 0 is no effect, 100 is complete control
[10] = 250 g ai/ha, scale 0 to 100, 0 no effect, 100 complete control
[11] = 125 g ai/ha, scale 0 to 100, 0 no effect, 100 complete control

Cc1nn(-c2ccc(F)cc2F)nc1Oc1ccnc(C(F)(F)F)c1 [Compound 146]
Plant response rating, Soybean (soybean (Glycine max); [8]): 10
Plant response rating, Soybean (soybean (Glycine max); [9]): 15
Plant response rating, Soybean (soybean (Glycine max); [10]): 40
Plant response rating, Velvetleaf [1, 8]: 0
Plant response rating, Velvetleaf [1, 9]: 5
Plant response rating, Velvetleaf [1, 11]: 15
Plant response rating, Velvetleaf [1, 10]: 60
Plant response rating, Wheat [2, 9]: 0
Plant response rating, Wheat [2, 11]: 0
Plant response rating, Wheat [2, 10]: 10
Plant response rating, Foxtail, Giant [3, 8]: 40
Plant response rating, Foxtail, Giant [3, 9]: 100
Plant response rating, Foxtail, Giant [3, 11]: 100
Plant response rating, Foxtail, Giant [3, 10]: 100
Plant response rating, Barnyardgrass (0 to 100 scale, 0 is no effect, 100 is complete control) [4]: 50
Plant response rating, Rice (0 to 100 scale, 0 is no effect, 100 is complete control) (rice (Oryza sativa)): 35
Plant response rating, Pigweed [5, 8]: 85
Plant response rating, Pigweed [5, 9]: 90
Plant response rating, Pigweed [5, 11]: 100
Plant response rating, Pigweed [5, 10]: 100
Plant response rating, Johnsongrass [6, 8]: 5
Plant response rating, Johnsongrass [6, 9]: 75
Plant response rating, Johnsongrass [6, 11]: 98
Plant response rating, Johnsongrass [6, 10]: 100
Plant response rating, Blackgrass [7, 8]: 50
Plant response rating, Blackgrass [7, 9]: 70
Plant response rating, Blackgrass [7, 11]: 90
Plant response rating, Blackgrass [7, 10]: 90
Plant response rating, Corn (corn (Zea mays); [8]): 0
Plant response rating, Corn (corn (Zea mays); [9]): 0
Plant response rating, Corn (corn (Zea mays); [11]): 15
Plant response rating, Corn (corn (Zea mays); [10]): 25
Plant response rating, Kochia (kochia (Kochia scoparia); [8]): 30
Plant response rating, Kochia (kochia (Kochia scoparia); [9]): 55
Plant response rating, Kochia (kochia (Kochia scoparia); [11]): 85
Plant response rating, Kochia (kochia (Kochia scoparia); [10]): 85
